# Test results: patent US9278982B2, “Targeting human thymidylate kinase induces DNA repair toxicity in malignant tumor cells” (NATIONAL YANG-MING UNIVERSITY, priority 2010, dated 2016)
# Tests used:
# panel of cell lines = experiment: Doxorubicin sensitization, MTS viability assay, summary over the panel of cell lines; type: cell-based, human
# Method: FIG. 16. In vitro and in vivo effect of YMU1 on doxorubicin sensitization. (A) A panel of cell lines were pre-treated with vehicle, YMU1 (compound 21), D6 (ethyl 4-(2-chloroacetyl)piperazine-1-carboxylate) or D7 (compound 28) for 3 days and were exposed to different concentration of doxorubicin for 4 h. […] The enhancement (fold) of doxorubicin sensitivity in each cell line was calculated. Data represent mean±s.d., n=3; each experiment was quadruplex. Inset indicates the IC50 value of doxorubicin in various cell lines. […] Following overnight culture, cells were refreshed with growth medium. After 14 days of culture, colonies were fixed, stained by crystal violet and counted. (C) HCT-116 p53^−/− cells were subcutaneously implanted in the right flank of Balb/c nude mice (each experimental group n=8). Arrow indicated the time of stopping drug treatment. The tumor volume was estimated as described in Methods of the Invention section. (D) After 2 weeks recovered from treatment, mice were sacrificed for tumor weight measurement. Data represent mean±s.e.m; **, P<0.01 by a two-tailed Student's t-test. (E) Ki 67 proliferation marker staining of tumor shown in left panel. Scale bar, 50 μm. (F) Model of doxorubicin sensitization by YMU1 in malignant cancer cells. Both R2/R1 and TMPK are recruited to the site of doxorubicin-induced double-strand breaks, where dATP, dGTP, dCTP, dTTP and dUTP are site-specific synthesized. Inhibition of TMPK decreases dTTP formation at DNA damage sites, causing futile DNA repair due to dUTP incorporation.
# Next, various human cancer cell lines were treated with YMU1, D6 or D7 for 72 h to test the potential of TMPK inhibitor in doxorubicin sensitization. After exposure to different concentration of doxorubicin for 4 h, cells were refreshed for viability analysis after 2 days and the IC50 value for doxorubicin in each of the cell lines was determined (FIG. 16A and Table 2).
# The ability of YMU1 to sensitize non-tumorigenic mammary cycling H184B5F5/M10, MCF10A, primary human mammary epithelial (HMEC) and primary renal epithelial (HREC) cells and IMR-90 embryonic lung fibroblasts to doxorubicin was much weaker.
# Cells plated into a 96-well plate (10^3 cells/well) were treated and cell viability was measured by MTS assay (Promega) (Cory et al., 1991). An annexin V-fluorescein isothiocyanate (FITC) apoptosis kit (Calbiochem) was used to detect apoptosis. The cell cycle analysis was performed by staining cells with propidium iodide (PI) for fluorescence-activated cell sorter (FACS) analysis with CellQuest software.
# TMPK = target: T1, TMPK (Homo sapiens, UniProt P23919); experiment: In vitro TMPK inhibitory activity of TMPK inhibitor derivatives (inhibition yield); type: biochemical; design: GST (N, cleaved yes); made in house; host or cells: E. coli JM109 (pGEX-2T-hTMPK), inferred; details: 2 μM; n=3 or 6; read-out: inhibition yield, normalized to compound 21 (YMU1) = 100%
# T1 sequence (P23919 1-212): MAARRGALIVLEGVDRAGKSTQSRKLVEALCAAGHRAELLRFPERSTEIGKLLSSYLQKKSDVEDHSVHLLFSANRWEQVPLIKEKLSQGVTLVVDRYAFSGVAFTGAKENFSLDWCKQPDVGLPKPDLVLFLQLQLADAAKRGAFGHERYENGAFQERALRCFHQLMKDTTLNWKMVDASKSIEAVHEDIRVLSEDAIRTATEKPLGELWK
# Source text: Chemical structures of the different TMPK inhibitor derivatives tested for in vitro TMPK inhibitory activity and in vivo doxorubicin sensitization activity (in MDA-MB231 cells) are depicted below.
# MDA-MB231 cells = experiment: Comet assay of DNA repair efficiency after doxorubicin; type: cell-based, human; details: YMU1 treatment, after removal of doxorubicin (0.1 μM)
# Method: FIG. 15. […] DNA repair efficiency was measured by comet assay at indicated time after removal of doxorubicin (0.1 μM) in MDA-MB231 cells. Image of DNA comet was acquired and quantified by using scion image software for tail moment determination. Data were expressed as mean±s.d. by counting at least 70 comets per sample in 3 independent experiments. **, P<0.01 based on a two-tailed Student's t-test.
# Alkaline comet assays were performed using a Trevigen's Comet Assay kit (4250-050-k) according to the manufacturer's instruction. DNA was stained with SYBR Green, and slides were photographed digitally (Olympus BX51 microscope and Olympus camera). Tail moments were analyzed using Scoin Image software.
smiles,measurement,setting,value
"CCOC(=O)N1CCN(C(=O)Cn2sc3nc(C)cc(C)c3c2=O)CC1 [compound 21, Ethyl 4-(2-(4,6-dimethyl-3-oxoisothiazolo[5,4-b]pyridin-2(3H)-yl)acetyl) piperazine-1-carboxylate]",ability to sensitize to doxorubicin,"panel of cell lines; non-tumorigenic H184B5F5/M10, MCF10A, HMEC, HREC cells and IMR-90 fibroblasts",much weaker
same,doxorubicin sensitization,panel of cell lines; two BRCA 1/2 deficient tumor cells defective in homologous recombination repair,not responsive
same,inhibition at 2 µM,TMPK,100%
same,"DNA repair (comet assay, tail moment)",MDA-MB231 cells,impairment of DNA repair
